The experiment deals with T1, Kir3.1+Kir3.4 (Homo sapiens, UniProt P48544+P48549).
T1 sequence (P48549 1-501): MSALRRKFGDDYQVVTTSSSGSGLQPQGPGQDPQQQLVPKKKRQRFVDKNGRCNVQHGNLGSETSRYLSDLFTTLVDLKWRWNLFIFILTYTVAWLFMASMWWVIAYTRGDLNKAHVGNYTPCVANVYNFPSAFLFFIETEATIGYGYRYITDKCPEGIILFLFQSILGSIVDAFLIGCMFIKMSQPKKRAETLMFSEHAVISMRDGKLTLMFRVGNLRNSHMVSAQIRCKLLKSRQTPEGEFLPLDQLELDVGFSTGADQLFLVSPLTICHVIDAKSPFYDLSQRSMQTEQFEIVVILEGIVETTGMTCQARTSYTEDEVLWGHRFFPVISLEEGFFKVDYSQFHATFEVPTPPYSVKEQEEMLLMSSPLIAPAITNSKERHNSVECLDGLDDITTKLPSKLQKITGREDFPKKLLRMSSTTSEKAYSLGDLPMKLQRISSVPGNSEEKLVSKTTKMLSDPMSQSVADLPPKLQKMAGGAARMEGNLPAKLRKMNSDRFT
T1 sequence (P48544 1-419): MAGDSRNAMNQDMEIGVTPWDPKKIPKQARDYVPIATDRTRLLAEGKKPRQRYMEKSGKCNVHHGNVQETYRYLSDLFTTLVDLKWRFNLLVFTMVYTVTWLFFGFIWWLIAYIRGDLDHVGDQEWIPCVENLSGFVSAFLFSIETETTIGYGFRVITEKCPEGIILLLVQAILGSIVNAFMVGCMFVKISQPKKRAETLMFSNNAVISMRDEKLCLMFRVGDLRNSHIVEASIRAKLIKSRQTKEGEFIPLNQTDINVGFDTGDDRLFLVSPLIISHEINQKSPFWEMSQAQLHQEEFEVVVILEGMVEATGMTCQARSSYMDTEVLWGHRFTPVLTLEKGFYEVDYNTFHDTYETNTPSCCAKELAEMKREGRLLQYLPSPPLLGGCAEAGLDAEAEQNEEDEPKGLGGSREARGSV
Briefly: Two-electrode voltage clamp in Xenopus laevis oocytes, Kir3.1+Kir3.4. Type of experiment: cell-based. The settings on record: BBP 10 μM, TEVC, n = 5. How it is done: cRNA was prepared from linearized plasmids using the mMESSAGE mMACHINE T7 kit (Ambion, USA) and quantified by UV spectroscopy (NanoDrop, Thermo Scientific, Wilmington, USA). Xenopus laevis oocytes were acquired from EcoCyte Bioscience (Castrop-Rauxel, Germany). Oocytes were injected with 50 nL cRNA and currents were recorded after 2 days of incubation at 19°C. Currents were recorded at a sampling rate of 10 kHz using a TEVC amplifier (Dagan CA-1B; IL, USA), and borosilicate glass recording electrodes (Module Ohm, Herlev, Denmark), made with a DMZ Universal Puller (Zeitz Instruments, Martinsried, Germany) with a resistance of 0.5–1 MΩ when filled with 2 M KCl. Oocytes were superfused with Kulori (pH 7.4) solution containing NaCl 90 mM, KCl 4 mM, MgCl2 1 mM, CaCl2 1 mM, 4-(2-hydroxyethyl)-1-piperazineethanesulfonic acid 5 mM, and currents were elicited with the voltage protocols previously indicated (Skarsfeldt et al., [2016]), from a holding potential of −80 mV. […]
To assess the effect of BBP on other calcium-activated potassium channels (hBK, hSK3 WT, rSK3 H491N, and hIK), each individual current was first normalized to its cell size using membrane's capacitance (pA/pF) before statistical analysis. […] Statistical significance between saline and the effect of both BBP and the corresponding reference compound was determined for each channel using one-way ANOVA analysis. […]

SMILES strings stand for the structures. Entries after “also recorded” stand apart in the source; their conditions may differ.

One molecule from PMC6287599, “2,6-Bis(2-Benzimidazolyl)Pyridine (BBP) Is a Potent and Selective Inhibitor of Small Conductance Calcium-Activated Potassium (SK) Channels” (Frontiers in Pharmacology, 2018) can be followed below.

For the molecule `c1cc(-c2nc3ccccc3[nH]2)nc(-c2nc3ccccc3[nH]2)c1` [BBP, 2,6-Bis(2-benzimidazolyl)pyridine], the “Effect on Kir3.1+Kir3.4 current” value is “did not have any effect; also recorded: did not significantly affect”.
